The text below walks through data of PMC3275588, “Cellular Growth Kinetics Distinguish a Cyclophilin Inhibitor from an HSP90 Inhibitor as a Selective Inhibitor of Hepatitis C Virus” (PLoS ONE, 2012).

Several values for one entry are separate records, joined by “and”; a condition that tells them apart may be missing. Equal entries are not always repeated. Where two headings read alike, the source gives them in different places.

In data set [1] the test system is luciferase-encoding HCV replicon. In words: HCV replicon Renilla luciferase antiviral assay. In kind it is cell-based, hepatitis C virus. Conditions: three days post drug addition. On the procedure: (§1) Using a stable cell line replicating a luciferase-encoding HCV replicon, we measured viral replication levels (Renilla luciferase) across a range of drug concentrations (2 nM to 44.4 µM) three days post drug addition. In parallel, we measured intracellular esterase activity as a surrogate for cell viability using the Calcein AM reagent.
(§2) Renilla luciferase replicon cell assays were performed as previously described. Calcein AM (Anaspec, Fremont, CA) and CellTiter-Glo (Promega, Madison, WI) readouts were performed as instructed by the manufacturer.
A general note: In antiviral work, replicon cells carry a viral genome segment that copies itself.

Data set [2] can be described thus: Calcein AM intracellular esterase activity (cell viability). On the procedure: as §1, §2
Data set [3] deals with HCV replicon cells. The data set is described as above. On the procedure:
as §1, §2

Data set [4] is described as follows: CellTiter-Glo intracellular ATP (cell viability). On the procedure: as §2
(Cellular ATP, detected with luciferase, serves as a proxy for viable cell number.)

A short description of data set [5]: Cell number by count of Hoechst-stained nuclei. In kind it is cell-based. Conditions: genotype 1a HCV replicon cells; Hoechst-stained nuclei, three days. On the procedure:
(§3) For direct assessment of cell number, genotype 1a replicon cells were seeded in 384 well plates at 1500 cells/well. Compounds were added as previously described. Cells were fixed in 1% paraformaldehyde (Electron Microscopy Sciences) and 25 µg/ml Hoechst 33342 (Invitrogen) in PBS for 30 minutes at room temperature. The fixed cells were washed twice with PBS, and images of each well were acquired with the ImageXpress Micro (Molecular Devices, Sunnyvale, CA). Nuclei were quantified with the cell scoring application in MetaXpress (Molecular Devices, Sunnyvale, CA).

The test system of data set [6] is genotype 1a replicon cells. In words: Cell number by count of Hoechst-stained nuclei. In kind it is cell-based. The conditions noted are these: three days; for effect on number of cells per image / number of cells per image: 1 µM compound. On the procedure: as §3
Data set [7] concerns HCV replicon cells. As to the kind of experiment: Cellular growth by percent confluence (IncuCyte time-lapse microscopy). The conditions noted are these: for effect on kinetics of cellular proliferation: 1 µM, % confluence every four hours; for minimum inhibitory concentration (MIC) for growth rate: lowest concentration with significant decrease in growth rate. In kind it is cell-based. An excerpt:
To distinguish between these two mechanisms, we directly measured cellular confluence (the percent of the culture well occupied by cells, % confluence) every four hours and quantified cellular replication rates.
We next determined if 17-AAG slows cell growth at the same concentration at which it inhibits HCV replication. We quantified growth rate by assessing the change in % confluence between days 1 and 2 (% confluence/day) and measured the effect of growth rate as a function of dose.
(§4) To assess cellular growth, 96 well plates ImageLock plates (Essen Instruments, Ann Arbor, MI) were seeded at a density of 5×10^3 cells/well in culture medium without G418. Percent confluence was quantified using bright phase images (at 10× magnification) acquired of each well every four hours in an IncuCyte (Essen Instuments, Ann Arbor, MI). Alternatively, 7.5×10^4 cells/well were plated in 6 well plates. Each day post drug addition, cells were dislodged from the tissue culture plate using 350 µL trypsin-EDTA and then quenched with 150 µL fetal bovine serum. The number of cells that exclude trypan-blue was determined using the Vi-Cell (Beckman Coulter, Fullerton, CA) in triplicate.

The test system of data set [8] is HCV replicon cells. As to the kind of experiment: Trypan-blue exclusion viable cell count. In kind it is cell-based. The conditions noted are these: 1 µM, multiple timepoints post drug addition. On the procedure:
Cells treated were trypsinized and quantified at multiple timepoints post drug addition (Fig. 5C).
as §4

In data set [9] the test system is HCV replicon cells. As to the kind of experiment: CellTiter-Glo intracellular ATP (cell viability). The conditions noted are these: three day assay. On the procedure: as §2
The subject of data set [10] is Infectious HCV (2a) Min3 virus in non-dividing Lunet-CD81 cells. In words: Extracellular HCV titer in HCV-infected non-dividing cultures. In kind it is cell-based, hepatitis C virus. The conditions noted are these: for reduction of infectious HCV titer: 10×EC50 (0.35 µM). On the procedure:
(§5) Because 17-AAG slows cellular proliferation at concentrations similar to its effective concentration for inhibiting HCV replication, we next assessed whether it inhibited HCV replication in non-dividing cells. We first established a non-dividing monolayer of Lunet-CD81 cells and then infected that monolayer with cell-culture adapted virus capable of spreading and infecting all of the cells in a culture. […] When the fully-infected non-dividing cultures were treated with DMSO alone, the extracellular viral titer remained relatively constant at between 10^5 and 10^6 TCID50/ml over time (Fig. 6A). […] The reduction in HCV titer caused by 17-AAG, may at least in part, result from the modest toxicity observed in the non-dividing monolayers at the concentrations used.
HCV-infected non-dividing cultures were established by methods adapted from Sainz and Chisari. Briefly, Lunet-CD81 cells were seeded in 12-well plates at a density of 50,000 cells/well. The plates were incubated over-night at 37°C and subsequently DMSO was added to 1% final concentration. Cells were allowed to grow to confluence over three days. Infectious HCV (2a) with three adaptive mutations (the Min3 virus) (core K78E, NS2 W879R, and NS4B K1761N) was then added to each well at an MOI of five. […] 200 µl aliquots of the extracellular medium were saved daily, stored at −80°C, and subsequently used for infectious viral titering. After three days, the compound-medium was refreshed and time points were collected for seven days. Viral titers as a percentage of the DMSO-treated control were measured through diluting the extracellular medium 40-fold and using it to infect naïve Lunet-CD81 cells. After 72 hours of incubation, intracellular HCV replication was measured by following NS3-4A protease cleavage of a europium-labeled peptide.

The test system of data set [11] is adapted HCV (2a) in dividing cells. In words: Extracellular HCV titer in fully-infected dividing cultures. In kind it is cell-based, hepatitis C virus. On the procedure: As a comparative control, we performed the same compound-treatment using fully-infected cultures that were still dividing (see Materials and Methods). […] The inhibitory effect of 17-AAG was diminished only as the cell cultures reached confluence (days 3 and 4 post-compound addition) (Fig. 6B).
As a comparative control, fully-infected, growing cell cultures were prepared as well. Briefly, cells were plated at 25,000 cells/well on 12-well plates. After the cells adhered to the plate (four hours post-seeding), they were infected at an MOI of five using adapted HCV (2a) (see above). The HCV infection was permitted to spread until the cultures were fully infected (three days post-infection). Subsequently, compounds were added and extracellular medium was removed each day and analyzed as described above.

A further data set deals with HCVcc Min3 virus. As to the kind of experiment: Antiviral potency in rapidly-dividing virus-infected cells (NS3-4A protease activity). In kind it is cell-based, hepatitis C virus. On the procedure: To assess the antiviral potency of compounds in rapidly-dividing virus-infected cells. we adapted a method from a previously described assay. Briefly, 1500 cells per well were plated in 384 well-plates. Infection with the HCVcc Min3 virus (core K78E, NS2 W879R, and NS4B K1761N) was followed by addition of compound as described. After three days, intracellular NS3-4A protease activity was assessed. Luciferase, Calcein, CellTiter-Glo, and NS3-4A levels were expressed as a percent of the no-drug control.
Supplementary file pone.0030286.s001.tif: Figure S1 CsA and 17-AAG maintain potency, similar to rapidly-dividing replicon cells, in rapidly-dividing virus-infected cells. The normalized amount of virus, as measured by enzymatic activity of the NS3-4A protease, was determined as a function of dose. […] (TIF) Click here for additional data file.

The subject of data set [12] is non-dividing Lunet-CD81 monolayers. In words: Cell number in non-dividing monolayers. On the procedure: as §5

Broadly, the EC50 is the concentration needed to bring the measured effect to its halfway point. For orientation: CC50 means the concentration that lowers cell viability or growth by half. The compound `COc1ccc(C[C@H](N)C(=O)N[C@H]2[C@@H](O)[C@H](n3cnc4c(N(C)C)ncnc43)O[C@@H]2CO)cc1` [Puromycin, puromycin] displayed an EC50 in data set [1] (Hepatitis C virus, 72 h) of 290 nM. Also, the CC50 at 3 days in [2] is 1070 nM; in [4], 516 nM; in data set [5], 52 nM. Also, the “difference between CC50 (toxic concentration) and EC50 (antiviral concentration)” value in the data set on HCV replicon cells [3] (Calcein assay vs replicon assay) was at most 4 fold. For the same compound, the “effect on number of cells per image” value in data set [6] was “eliminated all cells”. For the same compound, the “effect on kinetics of cellular proliferation” value in the data set with HCV replicon cells [7] is given as “rapid elimination of cells”. The “minimum inhibitory concentration (MIC) for growth rate” value in the data set on HCV replicon cells [7] was determined as 0.205 µM. Moreover, in the data set on HCV replicon cells [8], the “effect on number of viable cells” value is reported as “reduced the number of viable cells equally effectively”.
For the compound `CNC(=O)c1c(-c2ccc(F)cc2)oc2cc(N(CCO)S(C)(=O)=O)c(C3CC3)cc12` [HCV-796], the EC50 in [1] (Hepatitis C virus, 72 h) was 15 nM. In addition, the CC50 at 3 days in data set [2], in [4] and in data set [5] was over 44400 nM throughout. Besides, the “cytotoxicity (intracellular esterase activity)” value with HCV replicon cells [3] (2 nM to 44.4 µM, three days) is reported as “without any observable cytotoxicity”. Also, the “effect on number of cells per image” value in data set [6] was “Neither 1 µM CsA (Fig. 4C) nor HCV-796 (Fig. 4A) altered the number of cells per image”. Moreover, in data set [6] (dose response), the “toxicity by cell number” value was “non-toxic at all concentrations tested”. Further, the “effect on cell proliferation (growth rate as a function of dose)” value in the data set on HCV replicon cells [7] (any concentration tested) is reported as “did not significantly impair cell proliferation at any concentration tested”. Moreover, in the data set with HCV replicon cells [8], the “effect on number of viable cells” value is listed as “Neither CsA nor HCV-796 treatment affected cell viability”.
`C=CCNC1=C2C[C@@H](C)C[C@H](OC)[C@H](O)[C@@H](C)/C=C(\C)[C@H](OC(N)=O)[C@@H](OC)/C=C\C=C(/C)C(=O)NC(=CC1=O)C2=O` [17-AAG, 17-(Allylamino)-17-demethoxygeldanamycin]: the EC50 in [1] is 12.1 nM and 12 nM; with HCVcc Min3 virus (rapidly-dividing virus-infected cells, NS3-4A protease activity, three days, read-out: EC50) it was 35 nM. Besides, the CC50 with HCV replicon cells [3] (read-out: CC50 Calcein, intracellular esterase activity, three day assay) was 21000 nM; in the data set on HCV replicon cells [9] (read-out: CC50 Intracellular ATP, CellTiter-Glo), 38 nM; in data set [6] (Hoechst-stained nuclei), 5 nM. Besides, the “number of cells per image” value in [6] is reported as ~22 % of the controls. Besides, the growth rate with HCV replicon cells [7] (22 nM, change in % confluence between days 1 and 2) is given as 18.0+/−1.1 % confluence/day. Moreover, the “effect on kinetics of cellular proliferation” value with HCV replicon cells [7] is “slowed the kinetics of cellular proliferation significantly”. In the data set on HCV replicon cells [7], the “minimum inhibitory concentration (MIC) for growth rate” value was found to be 0.022 µM. Moreover, the “effect on number of viable cells” value in the data set on HCV replicon cells [8] is “reduced the number of viable cells equally effectively”. Further, the “antiviral effect on HCV titer” value in data set [10] (non-dividing cell-culture model of HCV replication) was “little antiviral effect”. Further, the “reduction of infectious HCV titer” value in [10] (non-dividing cells, Day 7) came out at 0.3 log; in data set [10] (non-dividing cells, day 2), 0.6 log. Besides, in data set [11] (dividing cells, 10×EC50, after 24 hours of treatment), the “reduction of level of infectious HCV” value is reported as “roughly 2 logs”. In addition, in [12] (non-dividing monolayers, 10×EC50), the number of cells is given as 74 % of the DMSO-treated control.
With `COc1cc2c(c(OC)c1OC)-c1ccc(OC)c(=O)cc1[C@@H](NC(C)=O)CC2` [Colchicine, colchicine], the CC50 at 3 days in data set [2] was over 44400 nM; in [4], 16 nM. Moreover, the “intracellular ATP signal” value in the data set with HCV replicon cells [9] (maximal effect) was < 7 % of the untreated controls.
Regarding `COc1ccc2c(O[C@@H]3C[C@H]4C(=O)N[C@]5(C(=O)O)C[C@H]5/C=C\CCCCC[C@H](NC(=O)OC5CCCC5)C(=O)N4C3)cc(-c3csc(NC(C)C)n3)nc2c1` [BILN-2061], the “suppression of infectious HCV titer” value in data set [10] (non-dividing cells, 10×EC50, sustained over 7-day time course) is 2 log. Also, in [11] (dividing and non-dividing cells, 10×EC50), the “effect on viral titers” value was “inhibited viral titers in both dividing and non-dividing cells”. In the data set with HCVcc Min3 virus (Hepatitis C virus, 72 h), the midpoint of the response, the EC50, lay at 140 nM. In [12] (human, 10 ×EC50), the “effect on number of cells” value was “neither CsA nor BILN 2061-treatment decreased the number of cells”.
On to `Nc1ccn([C@@H]2O[C@H](CO)[C@@H](O)C2(F)F)c(=O)n1` [Gemcitabine, gemcitabine], for which the EC50 in data set [1] (Hepatitis C virus, 72 h) came out at 12 nM. For the same compound, the CC50 at 3 days is over 44400 nM in [2], 6 nM in data set [4] and 4 nM in data set [5]. The “number of cells per image” value in data set [6] was ~22 % of the controls.
